Where two headings read alike, the source gives them in different places.
Key:
[1] = biological target: T1, CIB1 and αIIb interaction (CIB1-GST : F-αIIb peptide) (Homo sapiens, UniProt Q99828); experiment: FP assay, 1536-well qHTS format (primary and confirmatory screen); type: binding
T1 construct: made in house; host or cells: BL-21 plus RIL cells (E. coli)
T1 sequence (Q99828 1-191): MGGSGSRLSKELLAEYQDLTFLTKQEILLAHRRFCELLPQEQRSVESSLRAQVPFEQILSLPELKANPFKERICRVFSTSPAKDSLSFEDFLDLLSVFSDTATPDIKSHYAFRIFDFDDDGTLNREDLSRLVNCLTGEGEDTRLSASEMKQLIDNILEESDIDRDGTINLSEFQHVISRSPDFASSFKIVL

[2] = biological target: T2, GST-CIB1 : F-scrambled peptide (Homo sapiens, UniProt Q99828); experiment: FP scrambled-peptide counter screen, 1536-well format; type: binding; settings: for IC50: read-out: IC50 [μM] (counterscreen); for Confirm? (counterscreen): YES/NO
T2 construct: made in house; host or cells: BL-21 plus RIL cells (E. coli)
T2 sequence (Q99828 1-191): T1 sequence (Q99828 1-191)

[3] = confirmatory screen, qHTS curve class, negative sign = inhibitory curve
[4] = confirmatory screen, read-out: IC50 [μM] (confirmatory screen)
[5] = qHTS FP screen hits, Table S2, negative = inhibition
[6] = qHTS FP screen hits, Table S2, read-out: IC50
[7] = counterscreen, qHTS curve class, negative sign = inhibitory curve
[8] = qHTS FP screen hits, Table S2, one class per curve where COUNT > 1, negative sign = inhibitory curve
[9] = qHTS primary screen hits, Table S2, negative = inhibition
[10] = qHTS primary screen hits, Table S2, negative sign = inhibitory curve, several classes where COUNT > 1
[11] = qHTS primary screen hits, Table S2, read-out: IC50
[12] = Table S3, confirmatory screen, YES/NO call
[13] = Table S3, confirmatory screen, qHTS curve class, a negative sign marks inhibitory curves
[14] = Table S3, confirmatory screen, negative = inhibition
[15] = Table S3, confirmatory screen, read-out: IC50 [μM] (confirmatory screen)
[16] = Table S3, counterscreen, qHTS curve class, a negative sign marks inhibitory curves
[17] = Table S3, counterscreen, negative = inhibition

SMILES | Efficacy (%) (confirmatory screen) ([1]; confirmatory screen) | Confirm? (confirmatory screen) ([1]; confirmatory screen, YES/NO) | Curve Class (confirmatory screen) [1, 3] | IC50 [1, 4] [µM] | Efficacy (%) (counterscreen) ([2]; counterscreen) | Curve Class (counterscreen) [2, 7] | IC50 ([2]; counterscreen) [µM] | Efficacy (%) [1, 9] [%] | Curve Class [1, 10] | IC50 [1, 11] [µM] | Efficacy (%) [1, 5] [%] | IC50 [1, 6] [µM] | Curve Class (confirmatory screen) [1, 13] | Efficacy (%) (confirmatory screen) [1, 14] | Efficacy (%) (counterscreen) [2, 17] | IC50 ([2]; Table S3, counterscreen) [µM] | further results
CCCC(=O)c1cc(O)c(O)cc1O [NCGC00091839-03] | -145 | YES | -1.1 | 35.5 | -107 | -1.1 | 31.6 | – | – | – | -92 | 105 | – | – | – | – | –
CCOC(=O)CC(SP(=S)(OC)OC)C(=O)OCC (centres unmarked) [NCGC00091902-08] | -93 | YES | -2.2 | 100 | -27 | -1.4 | 20 | – | – | – | -52 | 119 | – | – | – | – | Curve Class [1, 8]: -2.2; Confirm? (counterscreen) ([2]; counterscreen): YES
NC(=O)c1ncn([C@@H]2O[C@H](CO)[C@@H](O)[C@H]2O)c1O [NCGC00094087-05] | – | – | – | – | – | – | – | -52 | -1.2 | 20 | – | – | – | – | – | – | CONFIRMATORY SCREEN Efficacy (%) ([1]; confirmatory screen): -5.43%; CONFIRMATORY SCREEN Curve Class ([1]; confirmatory screen, qHTS curve class): 4; COUNTERSCREEN Efficacy (%) ([2]; counterscreen): 0%; COUNTERSCREEN Curve Class ([2]; counterscreen, qHTS curve class): 4
C[C@H](Cc1ccc(O)c(O)c1)[C@@H](C)Cc1ccc(O)c(O)c1 [NCGC00094201-01] | -95 | YES | -2.2 | 39.8 | -68 | -1.2 | 12.6 | -32 | -2.4 | 27.1 | – | – | – | – | – | – | –
O=C1c2ccccc2C(=O)c2c1ccc(O)c2O [NCGC00095227-06] | – | – | – | – | – | – | – | – | – | – | -161 | 35.5 | -1.1 | -175 | -195 | 22.4 | Confirm? (confirmatory screen) [1, 12]: YES; IC50 [1, 15]: 17.8 µM; Curve Class [1, 8]: -2.1; Curve Class (counterscreen) [2, 16]: -2.1
Cc1coc2c1C(=O)C(=O)c1c-2ccc2c1CCCC2(C)C [NCGC00095709-08] | – | – | – | – | – | – | – | – | – | – | -65 | 79.4 | -1.2 | -67 | -67 | 39.8 | Confirm? (confirmatory screen) [1, 12]: YES; IC50 [1, 15]: 39.8 µM; Curve Class [1, 8]: -2.2; Curve Class (counterscreen) [2, 16]: -2.2
CC(O)C(=O)O.CCOc1ccc2nc3cc(N)ccc3c(N)c2c1.O [NCGC00096056-02] | – | – | – | – | – | – | – | -129 | -2.1 | 44.7 | – | – | -2.1 | -162 | -204 | 31.6 | Confirm? (confirmatory screen) [1, 12]: YES; IC50 [1, 15]: 25.1 µM; Curve Class (counterscreen) [2, 16]: -2.1
O=C1OC(c2ccc(O)c(S(=O)(=O)[O-])c2)(c2ccc(O)c(S(=O)(=O)[O-])c2)c2c(Br)c(Br)c(Br)c(Br)c21.[Na+].[Na+] [NCGC00159391-03] | – | – | – | – | – | – | – | -32 | -1.4 | 15.8 | – | – | 4 | -20 | 31 | 50.1 | –

The next lines start with results.

Efficacy (%) (confirmatory screen) ([1]; confirmatory screen) | Confirm? (confirmatory screen) ([1]; confirmatory screen, YES/NO) | Curve Class (confirmatory screen) [1, 3] | IC50 [1, 4] [µM] | Efficacy (%) (counterscreen) ([2]; counterscreen) | Curve Class (counterscreen) [2, 7] | IC50 ([2]; counterscreen) [µM] | Efficacy (%) [1, 9] [%] | Curve Class [1, 10] | IC50 [1, 11] [µM] | SMILES | Efficacy (%) [1, 5] [%] | IC50 [1, 6] [µM] | Curve Class (confirmatory screen) [1, 13] | Efficacy (%) (confirmatory screen) [1, 14] | Efficacy (%) (counterscreen) [2, 17] | IC50 ([2]; Table S3, counterscreen) [µM] | further results
-31 | YES | -3 | 44.7 | 82 | 3 | 100 | – | – | – | NC[C@@H](O)c1ccc(O)c(O)c1.O=C(O)C(O)C(O)C(=O)O [NCGC00094737-04] | – | – | – | – | – | – | Confirm? (counterscreen) ([2]; counterscreen): YES
– | – | – | – | – | – | – | -26 | -2.4 | 13.6 | O=C([O-])c1c(Cl)c(Cl)c(Cl)c(Cl)c1-c1c2cc(I)c(=O)c(I)c-2oc2c(I)c(O)c(I)cc12.[Na+] [NCGC00159508-05] | – | – | – | 261 | 311 | 44.7 | –
– | – | – | – | – | – | – | -57 | -3 | 34.1 | OCc1ccc(-c2ccc(-c3ccc(CO)s3)o2)s1 [NCGC00159570-01] | – | – | 2.4 | 58 | 97 | 50.1 | –
